{
  "source": "patent US6410037B1",
  "about": "“Anti-pruritic compositions” (Roche Consumer Health AG, priority 1999, dated 2002)",
  "key": {"[1]": {"test_system": "peritoneal mastocytes of rat", "experiment": "Histamine release by peritoneal mastocytes of rat stimulated by substance P (spectrofluorimetry with OPT)", "assay_type": "cell-based", "conditions": "10 μg/ml Ca-panthothenate and 7.5 μg/ml glycine, taken separately or together; substance P 10 μM", "quoted_text": "Peritoneal mastocytes of rat were incubated with the test products and the substance P for 2 minutes at 37° C. in the following medium: sodium phosphate buffer 4 mM; potassium phosphate buffer 2.7 mM; NaCl 0.145 M; KCl 2.7 mM; CaCl2 0.9 mM; BSA (bovine serum albumin 0.175% (w/v). At the end of the incubation, histamine released by the mastocytes was quantified by spectrofluorimetry with ortho-phthalaldehyde (OPT) (R. Hakanson, A. I. Ronnberg and K. Sjolund, Analy. Biochem., 47,1972, pp. 356-370). The measurements were carried out by means of a multiplate spectrofluorimeter (Cytofluor 2350, MILLIPORE). Data groups (control and treated groups) were compared using a one-way analysis of variance (ANOVA 1, p<0.05), following by a Dunnett' test (p<0.05)."}, "human skin tissue": {"test_system": "human skin tissue", "experiment": "Histamine release by human skin discs stimulated by substance P (ELISA)", "assay_type": "cell-based", "experimental": "Test were carried out on peritoneal mastocytes of rat stimulated by the substance P (10 μM), or on human skin tissue.\nThe skin tissue assay system was prepared from normal adult skin collected after abdominal plastic surgery. The subject was a person (subject M1085). The skin tissue specimen was rinsed in Krebs bicarbonate solution consisting of: NaCl 118 mM; KCl 5.4 mM; NaH2PO4 1 mM; MgSO4 1.2 mM, CaCl2 1.9 mM; NaHCO3 25 mM and D-glucose 11.1 mM. Skin discs of about 8 mm of diameter were performed. Skin discs were cultured in RPMI 1640 medium supplemented with penicillin (100 UI/ml), streptomycin (110 μg/ml) and 2 mM glutamine. Skin discs were maintained at 37° C. in a humidified incubator under a 5% Co2/95% air atmosphere. Test products were incubated with the human skin discs and 100 μM of substance P for 2 hours at 37° C.\nAt the end of the incubation, histamine released by the human skin discs was quantified by ELISA (IMMUNOTECH). The results were expressed as pmoles of histamine released per gram of skin. Data groups (control and treated groups) were compared using a one-way analysis of variance (ANOVA 1, p<0.05), following by a Dunnett's test (p<0.05)."}, "mastocytes": {"test_system": "mastocytes", "conditions": "cited from earlier work"}},
  "data": [
    {"compound": "NCC(=O)O", "note": "[Glycine]", "values": [
      {"measurement": "Inhibition of histamine release (in words)", "setting": "[1]", "value": "do not act as inhibitors"},
      {"measurement": "Effect of addition of glycine to Ca-pantothenate on inhibition of histamine release (in words)", "setting": "human skin tissue; glycine 75 μg/ml added to Ca-pantothenate 100 μg/ml", "value": "further improves such inhibition"},
      {"measurement": "Histamine release by mastocytes (in words)", "setting": "mastocytes", "value": "inhibits histamine release by mastocytes"}
    ]},
    {"compound": "calcium pantothenate [Ca-pantothenate]", "values": [
      {"measurement": "Inhibition of histamine release (in words)", "setting": "[1]", "value": "do not act as inhibitors"},
      {"measurement": "Inhibition of histamine release (in words)", "setting": "human skin tissue; already at a concentration of 25 μg/ml", "value": "acts as inhibitor of the histamine release"}
    ]}
  ]
}
